Experimental data from the NIST ThermoML archive (doi:10.1021/je800335v).

Assays:
[1] = molar heat capacity at constant pressure; xn = mol fraction of the nth substance listed; settings: 298 K, 101 kPa, Liquid, Small sample (50 mg) DSC
[2] = molar heat capacity at constant pressure; settings: 101.33 kPa, Liquid, Small sample (50 mg) DSC

CCCC[n+]1ccn(C)c1.O=S(=O)([N-]S(=O)(=O)C(F)(F)F)C(F)(F)F + CCCCn1cc[n+](C)c1.[Cl-]
[1]
Settings | molar heat capacity at constant pressure [J/K/mol]
x2 = 0.0919 | 549
x2 = 0.2394 | 515
x2 = 0.4129 | 468
x2 = 0.5832 | 420

CCn1cc[n+](C)c1.O=S(=O)([N-]S(=O)(=O)C(F)(F)F)C(F)(F)F
[2]
Settings | molar heat capacity at constant pressure [J/K/mol]
293 K | 523
298 K | 525
303 K | 527
308 K | 529
313 K | 533
318 K | 535
323 K | 538
328 K | 539
333 K | 542
338 K | 545
343 K | 547
348 K | 548
353 K | 550
358 K | 551

CCCCn1cc[n+](C)c1.O=S(=O)([O-])C(F)(F)F [1-butyl-3-methylimidazolium trifluoromethanesulfonate] + O
[1]
Settings | molar heat capacity at constant pressure [J/K/mol]
x2 = 0.0108 | 448
x2 = 0.137 | 401
x2 = 0.3379 | 325
x2 = 0.5215 | 257

CCCC[N+]1(C)CCCC1.FC(F)(F)C(F)(F)[P-](F)(F)(F)(C(F)(F)C(F)(F)F)C(F)(F)C(F)(F)F
[2]
Settings | molar heat capacity at constant pressure [J/K/mol]
293 K | 767
298 K | 769
303 K | 773
308 K | 776
313 K | 781
318 K | 785
323 K | 788
328 K | 791
333 K | 796
338 K | 799
343 K | 803
348 K | 806
353 K | 809
358 K | 812

CCCCCC[n+]1ccn(C)c1.O=S(=O)([N-]S(=O)(=O)C(F)(F)F)C(F)(F)F
[2]
Settings | molar heat capacity at constant pressure [J/K/mol]
293 K | 669
298 K | 667
303 K | 667
308 K | 668
313 K | 671
318 K | 673
323 K | 675
328 K | 676
333 K | 679
338 K | 680
343 K | 683
348 K | 685
353 K | 687
358 K | 689

CCCC[N+]1(C)CCCC1.O=S(=O)([N-]S(=O)(=O)C(F)(F)F)C(F)(F)F
[2]
Settings | molar heat capacity at constant pressure [J/K/mol]
293 K | 630
298 K | 629
303 K | 632
308 K | 639
313 K | 644
318 K | 650
323 K | 654
328 K | 656
333 K | 659
338 K | 661
343 K | 660
348 K | 659
353 K | 658

CCCC[n+]1ccn(C)c1.O=S(=O)([N-]S(=O)(=O)C(F)(F)F)C(F)(F)F
[2]
Settings | molar heat capacity at constant pressure [J/K/mol]
293 K | 595
298 K | 599
303 K | 603
308 K | 607
313 K | 612
318 K | 617
323 K | 621
328 K | 624
333 K | 628
338 K | 631
343 K | 634
348 K | 636
353 K | 639
358 K | 641

CCCCn1cc[n+](C)c1.O=S(=O)([O-])C(F)(F)F [1-butyl-3-methylimidazolium trifluoromethanesulfonate]
[2]
Settings | molar heat capacity at constant pressure [J/K/mol]
293 K | 455
298 K | 457
303 K | 459
308 K | 461
313 K | 465
318 K | 469
323 K | 473
328 K | 477
333 K | 481
338 K | 486
343 K | 490
348 K | 495
353 K | 500
358 K | 504

CCCCCCCCCCCCCC[P+](CCCCCC)(CCCCCC)CCCCCC.O=S(=O)([N-]S(=O)(=O)C(F)(F)F)C(F)(F)F
[2]
Settings | molar heat capacity at constant pressure [J/K/mol]
293 K | 1366
298 K | 1366
303 K | 1368
308 K | 1372
313 K | 1379
318 K | 1384
323 K | 1389
328 K | 1389
333 K | 1395
338 K | 1397
343 K | 1402
348 K | 1405
353 K | 1409
358 K | 1413

CCOS(=O)(=O)[O-].CCn1cc[n+](C)c1 [1-ethyl-3-methylimidazolium ethyl sulfate]
[2]
Settings | molar heat capacity at constant pressure [J/K/mol]
293 K | 388
298 K | 389
303 K | 391
308 K | 394
313 K | 398
318 K | 402
323 K | 406
328 K | 410
333 K | 415
338 K | 420
343 K | 427
348 K | 433
353 K | 440
358 K | 447

CCCCCCCCn1cc[n+](C)c1.O=S(=O)([N-]S(=O)(=O)C(F)(F)F)C(F)(F)F
[2]
Settings | molar heat capacity at constant pressure [J/K/mol]
293 K | 724
298 K | 733
303 K | 741
308 K | 748
313 K | 756
318 K | 765
323 K | 773
328 K | 779
333 K | 788
338 K | 795
343 K | 803
348 K | 810
353 K | 817
358 K | 825
